This passage reports IC50 results from patent US11279712B2, “Macrocyclic compounds that inhibit MCL-1 protein” (AMGEN INC., priority 2017, dated 2022).

The subject of assay [1] is OPM-2 human multiple myeloma cell line. As to the kind of experiment: Cell Viability Assay (OPM-2 10 FBS). It is filed as cell-based. To be noted: OPM-2 cells, CellTiter-Glo, read-out: OPM-2 10% FBS IC50 IP. The method, then: Cell Viability Assay (OPM-2 10 FBS)
The human multiple myeloma cell line, OPM-2, was cultured in complete growth medium containing RPMI 1640 and 10% fetal bovine serum (FBS). Cells were seeded into 384-well plates at 3000 cells/well density in complete growth medium containing 10% FBS, and incubated for 16 h with serially diluted test compounds in a 37° C. incubator with 5% CO2. Cell viability was tested using CellTiter-Glo® assay (Promega, Madison, Wis.) according to the manufacturer recommendations. Luminescence was determined using an EnVision® Multilabel plate reader 25 min after the addition of detection reagent. IC50 values were then calculated with Xlfit using a logistical 4-parameter fit model in GraphPad Prism (GraphPad Software, San Diego, Calif.) or in Genedata Screener® (Genedata, Basel, Switzerland).

Assay [2] concerns the target Mcl-1/Bim interaction (recombinant human Mcl-1 residues 171-327) (Homo sapiens (Human), UniProt Q07820). The assay can be described thus: Cell Free Mcl-1:Bim Affinity Assay (Mcl-1 HTRF). It is filed as binding. To be noted: TR-FRET, 0.1 nM Mcl-1(171-327), 0.05 nM biotin-Bim(51-76). The method, then:
Cell Free Mcl-1:Bim Affinity Assay (Mcl-1 HTRF)
The inhibition of the Mcl-1/Bim interaction was measured using a time-resolved fluorescence resonance energy transfer (TR-FRET) assay. The recombinant human Mcl-1 (C-terminally 6×His tagged Mcl-1 containing residues 171-327) was generated at Amgen Inc (Thousand Oaks, Calif.). A biotinylated peptide derived from human Bim (residues 51-76) was purchased from CPC Scientific (San Jose, Calif.). The TR-FRET assay was conducted in a 384-well white OptiPlate™ (PerkinElmer, Waltham, Mass.) in a total volume of 40 μL. The reaction mixture contained 0.1 nM Mcl-1(171-327), 0.05 nM biotin-Bim(51-76), 0.05 nM LANCES Eu-W1024 Anti-6×His (PerkinElmer), 0.072 nM Streptavidin-Xlent (Cisbio, Bedford, Mass.), and serially diluted test compounds in the binding buffer of 20 mM Hepes, pH 7.5, 150 mM NaCl, 0.016 mM Brij®35, and 1 mM dithiothreitol. Test compounds were pre-incubated with Mcl-1(171-327) and biotin-Bim (51-76) for 60 min before addition of the detection mixture (LANCE® Eu-W1024 Anti-6×His and Streptavidin-Xlent). The reaction plates were further incubated overnight and then were read on an Envision® multimode reader (PerkinElmer). Fluorescence signals were measured at 620 nm (40-nm bandwidth) and 665 nm (7.5-nm bandwidth) with a 60 μs delay after excitation at 320 nm (75-nm bandwidth). The signal ratio at 665/620 nm corresponded to the Mcl-1/Bim interaction and was used in all data analyses. The IC50 values of test compounds were determined from duplicate data by analyzing competition curves using a four-parameter sigmoidal model in GraphPad Prism (GraphPad Software, San Diego, Calif.) or in Genedata Screener® (Genedata, Basel, Switzerland).

Like-named read-outs stand apart in the source and are kept apart here.

Mcl-1/Bim interaction (recombinant human Mcl-1 residues 171-327), sequence (Q07820 171-327): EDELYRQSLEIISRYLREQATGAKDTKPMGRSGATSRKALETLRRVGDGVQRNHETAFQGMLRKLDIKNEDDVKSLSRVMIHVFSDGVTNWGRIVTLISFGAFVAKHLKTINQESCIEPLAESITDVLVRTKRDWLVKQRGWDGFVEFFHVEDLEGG

One may read the IC50 as the concentration needed to halve the response being measured. Consider `C[C@@H]1[C@@H](C)C/C=C/[C@H](CN2CCN3CCOC[C@@H]3C2)[C@@H]2CC[C@H]2CN2C[C@@]3(CCCc4cc(Cl)ccc43)COc3ccc(cc32)C(=O)NS1(=O)=O` (single isomer, unassigned) [Example 37], for which the IC50 came to 451 nM in assay [1] (Homo sapiens, OPM-2, 16 h) and 0.288 nM in assay [2].
As for `C[C@@H]1[C@@H](C)CCC[C@H](C(=O)N2CC(F)(F)C2)[C@@H]2CC[C@H]2CN2C[C@@]3(CCCc4cc(Cl)ccc43)COc3ccc(cc32)C(=O)NS1(=O)=O` (single isomer, unassigned) [Example 38], the IC50 in assay [1] (Homo sapiens, OPM-2, 16 h) worked out at 525 nM; in assay [2] it was 0.517 nM.
On to `COCCN1CCN(C[C@H]2CCC[C@H](C)[C@@H](C)S(=O)(=O)NC(=O)c3ccc4c(c3)N(C[C@@H]3CC[C@@H]23)C[C@@]2(CCCc3cc(Cl)ccc32)CO4)CC1` (single isomer, unassigned) [Example 39], for which the values for the IC50 in assay [1] (16 h) and in assay [2] were 535 nM and 0.829 nM, respectively.
Regarding `C[C@@H]1[C@@H](C)CCC[C@H]([C@@H](C)O)[C@@H]2CC[C@H]2CN2C[C@@]3(CCCc4cc(Cl)ccc43)COc3ccc(cc32)C(=O)NS1(=O)=O` (single isomer, unassigned) [Example 40], the IC50 in assay [1] (16 h) came out at 564 nM; in assay [2] it was 0.822 nM.
Regarding `C[C@@H]1[C@@H](C)CCC[C@H](CS(C)(=O)=O)[C@@H]2CC[C@H]2CN2C[C@@]3(CCCc4cc(Cl)ccc43)COc3ccc(cc32)C(=O)NS1(=O)=O` (single isomer, unassigned) [Example 41], the IC50 in assay [1] (16 h) is 567 nM; in assay [2] it was 0.284 nM.
On to `C[C@@H]1CS(=O)(=O)NC(=O)c2ccc3c(c2)N(C[C@@H]2CC[C@H]2[C@@H](CO)CC[C@@H]1C)C[C@@]1(CCCc2cc(Cl)ccc21)CO3` (single isomer, unassigned) [Example 43], for which the figures for the IC50 in assay [1] (16 h) and in assay [2] were 599 nM and 0.268 nM, respectively.
Consider `C[C@@H]1[C@@H](C)CCC[C@@H](CS(C)(=O)=O)[C@@H]2CC[C@H]2CN2C[C@@]3(CCCc4cc(Cl)ccc43)COc3ccc(cc32)C(=O)NS1(=O)=O` (single isomer, unassigned) [Example 44], for which the IC50 in assay [1] (16 h) stood at 617 nM; in assay [2], 0.502 nM.
Consider `CC(=O)[C@@H]1CCC[C@H](C)[C@@H](C)S(=O)(=O)NC(=O)c2ccc3c(c2)N(C[C@@H]2CC[C@H]21)C[C@@]1(CCCc2cc(Cl)ccc21)CO3` (single isomer, unassigned) [Example 45], for which the values for the IC50 in assay [1] (16 h) and in assay [2] were 675 nM and 0.338 nM, respectively.
In the same order, the values of `C[C@@H]1[C@@H](C)CCC[C@H](CN2CCOCC2)[C@@H]2CC[C@H]2CN2C[C@@]3(CCCc4cc(Cl)ccc43)COc3ccc(cc32)C(=O)NS1(=O)=O` (single isomer, unassigned) [Example 46] are 724 nM and 0.743 nM.
As for `C[C@@H]1[C@@H](C)CCC[C@@H]([C@@H](O)C(F)(F)F)[C@@H]2CC[C@H]2CN2C[C@@]3(CCCc4cc(Cl)ccc43)COc3ccc(cc32)C(=O)NS1(=O)=O` (single isomer, unassigned) [Example 47], the half-maximal inhibitory concentration (IC50) is 756 nM in assay [1] (16 h) and 1.61 nM in assay [2].
Consider `CC(=O)N1CCN2CCN(C[C@H]3CCC[C@H](C)[C@@H](C)S(=O)(=O)NC(=O)c4ccc5c(c4)N(C[C@@H]4CC[C@@H]34)C[C@@]3(CCCc4cc(Cl)ccc43)CO5)C[C@H]2C1` (single isomer, unassigned) [Example 48], for which the figures for the half-inhibitory concentration (IC50) in assay [1] (16 h) and in assay [2] were 768 nM and 0.329 nM, respectively.
In the same order, the values of `CC[C@@H](O)[C@@H]1/C=C/C[C@H](C)[C@@H](C)S(=O)(=O)NC(=O)c2ccc3c(c2)N(C[C@@H]2CC[C@H]21)C[C@@]1(CCCc2cc(Cl)ccc21)CO3` (single isomer, unassigned) [Example 49] are 778 nM and 0.377 nM.
Consider `C[C@@H]1[C@@H](C)CCC[C@H](CN2CC3(CCCN3C)C2)[C@@H]2CC[C@H]2CN2C[C@@]3(CCCc4cc(Cl)ccc43)COc3ccc(cc32)C(=O)NS1(=O)=O` (single isomer, unassigned) [Example 50], for which the results for the IC50 in assay [1] (16 h) and in assay [2] were 785 nM and 0.923 nM, respectively.
On to `C[C@H]1CCC[C@H](CO)[C@@H]2CC[C@H]2CN2C[C@@]3(CCCc4cc(Cl)ccc43)COc3ccc(cc32)C(=O)NS(=O)(=O)C1` (single isomer, unassigned) [Example 51], for which the IC50 in assay [1] (16 h) was found to be 936 nM; in assay [2], 0.222 nM.
Taken in the same sequence, the figures for `C[C@@H]1[C@@H](C)CCC[C@H](C(=O)O)[C@@H]2CC[C@H]2CN2C[C@@]3(CCCc4cc(Cl)ccc43)COc3ccc(cc32)C(=O)NS1(=O)=O` (single isomer, unassigned) [Example 52] were 939 nM and 0.107 nM.
For `CC[C@@H](O)[C@H]1/C=C/C[C@H](C)[C@@H](C)S(=O)(=O)NC(=O)c2ccc3c(c2)N(C[C@@H]2CC[C@H]21)C[C@@]1(CCCc2cc(Cl)ccc21)CO3` (single isomer, unassigned) [Example 54], the values for the IC50 in assay [1] (16 h) and in assay [2] were 989 nM and 0.624 nM, respectively.
Consider `C[C@@H]1[C@@H](C)CCC[C@H](CN2CCN3CCN(C)C[C@@H]3C2)[C@@H]2CC[C@H]2CN2C[C@@]3(CCCc4cc(Cl)ccc43)COc3ccc(cc32)C(=O)NS1(=O)=O` (single isomer, unassigned) [Example 56], for which the values for the IC50 in assay [1] (16 h) and in assay [2] were 1030 nM and 0.52 nM, respectively.
Turning to `COCCNC(=O)[C@@H]1CCC[C@H](C)[C@@H](C)S(=O)(=O)NC(=O)c2ccc3c(c2)N(C[C@@H]2CC[C@H]21)C[C@@]1(CCCc2cc(Cl)ccc21)CO3` (single isomer, unassigned) [Example 57], the IC50 in assay [1] (Homo sapiens, OPM-2, 16 h) stood at 1170 nM; in assay [2] it was 0.604 nM.
With `C[C@@H]1[C@@H](C)CCC[C@H]([C@@H](C)O)[C@@H]2CC[C@H]2CN2C[C@@]3(CCCc4cc(Cl)ccc43)COc3ccc(cc32)C(=O)NS1(=O)=O` (single isomer, unassigned) [Example 58], the results for the IC50 in assay [1] (16 h) and in assay [2] were 1230 nM and 0.995 nM, respectively.
As to `COCC[C@@H]1[C@@H](C)CCC[C@H](CO)[C@@H]2CC[C@H]2CN2C[C@@]3(CCCc4cc(Cl)ccc43)COc3ccc(cc32)C(=O)NS1(=O)=O` (single isomer, unassigned) [Example 59], the IC50 in assay [1] (16 h) worked out at 1320 nM; in assay [2], 0.921 nM.
In the same order, the values of `CC[C@H](O)[C@H]1/C=C/C[C@H](C)[C@@H](C)S(=O)(=O)NC(=O)c2ccc3c(c2)N(C[C@@H]2CC[C@H]21)C[C@@]1(CCCc2cc(Cl)ccc21)CO3` (single isomer, unassigned) [Example 61] are 1410 nM and 0.281 nM.
Take `C[C@@H]1[C@@H](C)CCC[C@H](CO)[C@@H]2CC[C@H]2CN2C[C@@]3(CCCc4cc(Cl)ccc43)COc3ccc(cc32)C(=O)NS1(=O)=O` (single isomer, unassigned) [Example 63]: the results for the IC50 in assay [1] (16 h) and in assay [2] were 1460 nM and 0.997 nM, respectively.
In the case of `C[C@@H]1[C@@H](C)CCC[C@@H]([C@H](O)C(F)(F)F)[C@@H]2CC[C@H]2CN2C[C@@]3(CCCc4cc(Cl)ccc43)COc3ccc(cc32)C(=O)NS1(=O)=O` (single isomer, unassigned) [Example 66], the IC50 in assay [1] (16 h) worked out at 1600 nM; in assay [2], 7.29 nM.
As to `C[C@@H]1[C@@H](C)CCC[C@H](CN2CCOCC2)[C@@H]2CC[C@H]2CN2C[C@@]3(CCCc4cc(Cl)ccc43)COc3ccc(cc32)C(=O)NS1(=O)=O` (single isomer, unassigned) [Example 67], the IC50 was found to be 1670 nM in assay [1] (16 h) and 1.05 nM in assay [2].
Taken in the same sequence, the figures for `C[C@@H]1[C@@H](C)CCC[C@H]([C@H](O)C2CCN(C)CC2)[C@@H]2CC[C@H]2CN2C[C@@]3(CCCc4cc(Cl)ccc43)COc3ccc(cc32)C(=O)NS1(=O)=O` (single isomer, unassigned) [Example 68] were 1670 nM and 0.938 nM.
As to `C[C@H]([C@H]1CCC[C@H](C)[C@@H](C)S(=O)(=O)NC(=O)c2ccc3c(c2)N(C[C@@H]2CC[C@H]21)C[C@@]1(CCCc2cc(Cl)ccc21)CO3)N1CCOCC1` (single isomer, unassigned) [Example 70], the IC50 was 1860 nM in assay [1] (16 h) and 0.843 nM in assay [2].
